Source: US12491198B2, “Doxycycline injection for sclerotherapy of lower eyelid festoons and malar edema” (LKF21, LLC, priority 2020, dated 2025)

Columns and labels:
[1] = system: edema of festoons and malar mounds; assay: Studies of doxycycline as sclerosing agent at lower concentrations and compared with tetracycline; type: in vivo; settings: versus tetracycline
[2] = system: lower eyelid festoons and malar edema; type: in vivo, human
Protocol: An initial study of 15 consecutive patients with malar edema and/or festoons were injected with doxycycline hyclate at a concentration of 10 mg/mL. Pre- and post-injection photographs were reviewed and graded on a scale of 0 to 3 (0 no festoon, 1 small festoon, 2 medium festoon, 3 large festoon) by two blinded physician observers. […] Student t-test was used for statistical analysis.
Institutional Review Board (IRB) approval was obtained. A retrospective chart review was performed on 15 consecutive patients injected with doxycycline hyclate at a concentration of 10 mg/mL directly into their malar edema and festoons. The primary outcome measure was improvement in the appearance of lower eyelid festoons or malar edema. Pre- and post-injection photographs were reviewed and graded on a scale of 0 to 3 (0 no festoon, 1 small festoon, 2 medium festoon, 3 large festoon) by two blinded physician observers. All pre- and post-treatment photographs were taken in a standardized position without the use of a flash device. Written consent was obtained for the use of photographs and is on file with the authors. Additional data collected included patient age, volume of injection, location of injection, number of injections, and subjective complaints. […] Student t-test was used for statistical analysis.
Patients were offered injections in clinic or in the operating room with intravenous sedation, with or without concurrent eyelid surgery. For injections performed in the operating room, doxycycline hyclate was ordered from the hospital pharmacy at a concentration of 10 mg/mL. For injections performed in the office, doxycycline hyclate 100 mg sterile powder, lyophilized (Fresenius Kabi, Lake Zurich, Illinois, USA) was diluted to a concentration of 10 mg/mL with sterile 0.9% bacteriostatic sodium chloride solution. The solution was refrigerated at […], used within 48 hours of reconstitution, and protected from direct sunlight. Injections were performed using 1.0 mL syringes on a 30-gauge needle, directly into the festoon in multiple deep and intermediate planes beneath skin and muscle. Analysis of protected health information was compliant with the Health Insurance Portability and Accountability Act (HIPAA) and adherent to the Declaration of Helsinki.

bruising, average duration ([2]; human, in vivo): 10 days | patients reporting burning pain during the injection ([2]; human, in vivo): 100% | skin redness, average duration of symptoms ([2]; human, in vivo): 2 days
Structure (SMILES): C[C@H]1c2cccc(O)c2C(=O)C2=C(O)[C@]3(O)C(=O)C(C(N)=O)=C(O)[C@@H](N(C)C)[C@@H]3[C@@H](O)[C@@H]21 [doxycycline hyclate]
risk of necrotizing dermalysis compared with tetracycline [1]: significantly lower risk | average (standard deviation) festoon grade after injection ([2]; post-injection, 10 mg/mL intralesional, scale 0 to 3, 20 treatment sides of 11 patients, mean follow up 22.5 weeks, p-value<0.001 vs initial): 0.9 (0.82) | average (standard deviation) initial festoon grade ([2]; pre-injection, scale 0 to 3 (0 no festoon, 3 large festoon), 20 treatment sides of 11 patients, two blinded physician observers): 2.5 (0.58)
